In US20170087180A1, “METHODS AND COMPOSITIONS FOR TREATING NITRIC OXIDE DEFICIENCY DISORDERS AND RELATED CONDITIONS” (Sulfagenix, Inc., priority 2014, published 2017):

Test system: men with oligoasthenozoospermia
Assay: placebo-controlled randomized study of SG1002 compared to resveratrol in men with oligoasthenozoospermia
Assay type: in vivo
Conditions: SG1002 500 mg daily, resveratrol 50 mg daily, 54 men
Protocol: There was one placebo-controlled randomized study of SG1002,500 mg daily compared to resveratrol 50 mg daily in 54 men with oligoasthenozoospermia. Men treated with SG1002 had increased sperm concentration, motility and motile forms recovery compared to those treated with placebo. Resveratrol had no effect on any of these parameters. During the study, three men in the SG1002 arm withdrew: one due to excessive flatulence and nausea, one due to “smelly” sweating, and one for convenience.

Oc1ccc(C=Cc2cc(O)cc(O)c2)cc1 [Resveratrol, resveratrol]
no effect: motile forms recovery | sperm concentration | sperm motility
